Patent US10485861B2 (priority 2013, dated 2019)

System: Chlamydia trachomatis
Format: in vivo, mice
Conditions: subcutaneous immunization with UV-inactivated Chlamydia, alone or co-administered with the named adjuvant

CC(C)Cn1cnc2c(N)nc3ccccc3c21 [IMQ, imiquimod]
Protection against genital Chlamydia challenge (Chlamydia load): did not provide protection or tolerance
